What is called Kp is tissue or fluid exposure divided by exposure in the circulation.

Common to all, as to type: ADME, organism-based, Canis lupus familiaris
Data set [1] in a line: Biodistribution in iv dosed dog ventral abdomen measured after 30 mins by scintigraphic analysis. The conditions noted are these: in vivo, 0.5 h.
Data set [2] concerns Canis familiaris. Description: Biodistribution in iv dosed dog left lateral whole body measured after 4 mins by scintigraphic analysis. Conditions: in vivo; call rule not given here.
Data set [3] can be described thus: Biodistribution in iv dosed dog left lateral thorax measured after 27 mins by scintigraphic analysis. Conditions: in vivo, 0.45 h.
Data set [4] can be described thus: Biodistribution in iv dosed dog left lateral head/neck measured after 35 mins by scintigraphic analysis. Conditions: in vivo.
For data set [5], the system named is Canis familiaris. Description: Biodistribution in iv dosed dog lung after 3 mins by scintigraphic analysis. Conditions: in vivo, 0.05 h.
A short description of data set [6]: Biodistribution in iv dosed dog urinary bladder measured after 21 to 51 mins by scintigraphic analysis. The conditions noted are these: in vivo.
Data set [7] concerns Nucleic Acid. Kind of data set: Ratio of drug level in temporal muscle to pancreas in iv dosed dog measured after 34 mins. The conditions noted are these: in vivo.
Data set [8] concerns Nucleic Acid. Kind of data set: Ratio of drug level in temporal muscle to cerebrospinal fluid in iv dosed dog measured after 34 mins. The conditions noted are these: in vivo.
The test system of data set [9] is Nucleic Acid. Description: Ratio of drug level in temporal muscle to adrenal in iv dosed dog measured after 40 mins. Conditions: in vivo.
Data set [10] can be described thus: Ratio of drug level in temporal muscle to blood in iv dosed dog measured after 34 mins.
For data set [11], the system named is Nucleic Acid. Kind of data set: Ratio of drug level in temporal muscle to lung in iv dosed dog measured after 34 mins. The conditions noted are these: in vivo.
Data set [12] relates to Nucleic Acid. Description: Ratio of drug level in temporal muscle to kidney in iv dosed dog measured after 34 mins. The conditions noted are these: in vivo.
For data set [13], the system named is Nucleic Acid. Kind of data set: Ratio of drug level in temporal muscle to lung in iv dosed dog measured after 40 mins. Conditions: in vivo.
Data set [14] deals with Nucleic Acid. Kind of data set: Ratio of drug level in temporal muscle to heart in iv dosed dog measured after 34 mins. The conditions noted are these: in vivo.
Data set [15] deals with Nucleic Acid. Kind of data set: Ratio of drug level in temporal muscle to mesenteric fat in iv dosed dog measured after 40 mins. Conditions: in vivo.
Data set [16] has as its system Nucleic Acid. Kind of data set: Ratio of drug level in temporal muscle to liver in iv dosed dog measured after 34 mins. The conditions noted are these: in vivo.
The test system of data set [17] is Nucleic Acid. Description: Ratio of drug level in temporal muscle to spleen in iv dosed dog measured after 40 mins. Conditions: in vivo.
Data set [18] deals with Nucleic Acid. Description: Ratio of drug level in temporal muscle to mesenteric nodes in iv dosed dog measured after 40 mins. The conditions noted are these: in vivo.
Data set [19] deals with Nucleic Acid. Description: Ratio of drug level in temporal muscle to brain in iv dosed dog measured after 34 mins. Conditions: in vivo.
Data set [20] can be described thus: Ratio of drug level in temporal muscle to bile in iv dosed dog measured after 34 mins. The conditions noted are these: in vivo.
Data set [21] is described as follows: Ratio of drug level in temporal muscle to bile in iv dosed dog measured after 40 mins. Conditions: in vivo.
Data set [22] is described as follows: Ratio of drug level in temporal muscle to urine in iv dosed dog measured after 40 mins. Conditions: in vivo.
Data set [23] deals with Nucleic Acid. Kind of data set: Ratio of drug level in temporal muscle to kidney in iv dosed dog measured after 40 mins. Conditions: in vivo.
Data set [24] relates to Nucleic Acid. Kind of data set: Ratio of drug level in temporal muscle to spleen in iv dosed dog measured after 34 mins. Conditions: in vivo.
The subject of data set [25] is Nucleic Acid. Kind of data set: Ratio of drug level in temporal muscle to stomach in iv dosed dog measured after 34 mins. Conditions: in vivo.
Data set [26] relates to Nucleic Acid. Kind of data set: Ratio of drug level in temporal muscle to pancreas in iv dosed dog measured after 40 mins. Conditions: in vivo.
In data set [27] the test system is Nucleic Acid. Description: Ratio of drug level in temporal muscle to brain in iv dosed dog measured after 40 mins. The conditions noted are these: in vivo.
Data set [28] deals with Nucleic Acid. Kind of data set: Ratio of drug level in temporal muscle to heart in iv dosed dog measured after 40 mins. The conditions noted are these: in vivo.
Data set [29] deals with Nucleic Acid. Kind of data set: Ratio of drug level in temporal muscle to stomach in iv dosed dog measured after 40 mins. Conditions: in vivo.
For data set [30], the system named is Nucleic Acid. Description: Ratio of drug level in temporal muscle to liver in iv dosed dog measured after 40 mins. The conditions noted are these: in vivo.
Data set [31] is described as follows: Ratio of drug level in temporal muscle to urine in iv dosed dog measured after 34 mins. The conditions noted are these: in vivo.
Data set [32] is described as follows: Biodistribution in iv dosed dog blood measured after 3 mins by scintigraphic analysis. The conditions noted are these: in vivo, 0.05 h.
Data set [33] relates to Liver. Kind of data set: Biodistribution in iv dosed dog left lateral liver measured after 18 to 80 mins by scintigraphic analysis. The conditions noted are these: in vivo.
The nature of data set [34]: Biodistribution in iv dosed dog left lateral heart measured after 18 to 80 mins by scintigraphic analysis. The conditions noted are these: in vivo.

In the case of `N#[11C]C(O)c1ccc(O)c(O)c1` (configuration not stated), the Drug uptake entry in data set [1], in data set [2], in data set [3] and in data set [4] was “Active” throughout.

On to `O=[11C](OCc1ccccc1)C(O)c1ccccc1` (configuration not stated), for which, in data set [5], the Drug uptake entry is on record as “Active”.

Turning to `O=[11C](O)C(O)c1ccccc1` (configuration not stated), the Drug uptake result in [6] and in data set [2] was “Active” each time.

Take `Cc1cccc(C(O)[11C](=O)O)c1` (configuration not stated): the Drug uptake entry in [6] and in data set [2] was “Active” in each case.

Turning to `O=[11C](O)C(O)c1ccccc1Cl` (configuration not stated), the Drug uptake result in [6] and in [2] was “Active” each time. Moreover, the Ratio was determined as 4.54 in data set [7]; 2 in data set [8]; 3.73 in [9]; 1.08 in data set [11]; 4.46 in data set [12]; 1.6 in data set [13]. The Ratio in [14] is given as 1.15; in data set [15], 0.47; in [16] it was 1.38; in data set [17] it was 1.46; in data set [18], 2.28; in data set [19], 0.23. In addition, the Ratio in data set [20] is 1.23; in data set [21], 0.85; in data set [22], 295; in [23] it was 6.26; in data set [24] it was 1.08; in [25], 1.35. Besides, the Ratio in data set [26] came to 1.18; in data set [27], 0.16; in data set [28], 1.06; in data set [29] it was 1.17; in data set [30] it was 1.79; in [31] it was 36.77. Besides, the Kp at 34 min in data set [10] turned out to be 13.8.

On to `O=[11C](O)C(O)c1ccc(Cl)cc1` (configuration not stated), for which the Drug uptake result in [6] and in data set [2] was “Active” each time.

As to `CCO[11C](=O)C(O)c1ccccc1` (configuration not stated), in data set [5], the Drug uptake result is given as “Active”.

`COc1ccc(C(O)[11C]#N)cc1` (configuration not stated): the Drug uptake result in [32], in data set [33] and in data set [34] was “Active” each time.

(Values after ChEMBL document CHEMBL3244212, “Relationship of molecular structure to in vivo scintigraphic distribution of carbon-11-labeled compounds. 4. Carbon-11-labeled mandelonitriles, Mandelic acids, and their esters” (J Med Chem, 1978).)
